Laboratory results taken from patent US9393271B2, “GHRH agonists for islet cell transplantation and function and the treatment of diabetes” (UNIVERSITY OF MIAMI, priority 2012, dated 2016).
Non-standard residues stand in square brackets, D forms with d. Residues, ends and D or L forms follow the SMILES beside them. NMeY = CN[C@@H](Cc1ccc(O)cc1)C(=O)O; Nle = CCCC[C@H](N)C(=O)O; Orn = NCCC[C@H](N)C(=O)O; Abu = CC[C@H](N)C(=O)O

What was measured:
[1] = biological target: T1, GHRH receptor (human pituitary membrane homogenates) (Homo sapiens, UniProt Q02643); assay: GHRH receptor binding, ligand competition with 125I-labeled JV-1-42 (Table 7); set-up: Normal human pituitaries were purchased from the National Hormone and Peptide Program; tissue National Hormone and Peptide Program (A. F. Parlow, Harbor-UCLA Medical Center, Torrance, Calif.); host or cells: normal human pituitary, membrane fraction / homogenate; details: JI-38 = 1
T1 sequence (Q02643 23-423): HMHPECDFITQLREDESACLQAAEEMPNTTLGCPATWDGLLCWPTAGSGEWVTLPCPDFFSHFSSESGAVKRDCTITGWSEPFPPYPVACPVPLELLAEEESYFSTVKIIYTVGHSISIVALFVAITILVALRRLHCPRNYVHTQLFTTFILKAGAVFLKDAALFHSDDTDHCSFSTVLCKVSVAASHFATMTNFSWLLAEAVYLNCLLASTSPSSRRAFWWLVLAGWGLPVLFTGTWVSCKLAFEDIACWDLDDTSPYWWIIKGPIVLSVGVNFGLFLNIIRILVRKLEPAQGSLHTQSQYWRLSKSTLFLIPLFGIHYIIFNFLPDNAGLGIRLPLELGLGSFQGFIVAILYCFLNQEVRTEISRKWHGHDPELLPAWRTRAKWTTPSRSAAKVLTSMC

INS-1 cells [2] = assay: INS-1 proliferation (BrdU Cell Proliferation Assay); type: cell-based, rat
Description: For determination of proliferation activity, BrdU incorporation was performed in INS-1 cells following exposure to P-27403. Proliferation was measured using BrdU Cell Proliferation Assay (Millipore) following the manufacturer's description. The maximal enhancement in proliferation rate of 16% compared to control was found at 10^−8 M concentration of P-27403 (FIG. 1C).
INS-1 cells were grown for 72 h before experimentation. Cells were treated with GHRH agonists MR356, MR367, and MR403 at different concentrations or with 0.1% (vol/vol) DMSO as control for 24 h, 48 h and 72 h. Proliferation was measured using BrdU Cell Proliferation Assay (Millipore) following the manufacturer's description.

rat islets = assay: Viability of rat islets alone or in co-culture with adrenal cells; type: cell-based; details: rat islets alone, 10^-8 M, 24 hrs
Description: Pancreatic islets were isolated from female Wistar rats as described in prior art, and according to guidelines established by the University Institutional Animal Care and Use Committee. Briefly, animals were anesthetized by 3% isoflurane and digestion solution (Collagenase V; Sigma-Aldrich) was injected via the pancreatic duct. Islets were isolated by discontinuous Ficoll gradient centrifugation (Sigma-Aldrich). Isolated islets were cultured in RPMI 1640 (PAA) supplemented with 10% FBS at 37° C. in a 5% CO2 atmosphere prior to further experimentation. Yield and purity of islets were determined by microscopic sizing after staining with dithizone (Sigma-Aldrich) as previously described.
Female Wistar rats were used as adrenal donors according to guidelines established by the University Institutional Animal Care and Use Committee. After euthanization, the adrenal glands were rapidly removed and kept in PBS at 4° C. After removal of adipose tissue, the capsule was removed. The tissue was then incubated at 37° C. in PBS containing collagenase type II (2.0 mg/ml; Sigma-Aldrich) and DNase (0.15 mg/ml; Sigma-Aldrich). After incubation for 30 min, the digestion was stopped by adding cold PBS. […]
Isolated rat islets and co-cultured islets were treated with P-27403 at a concentration of 10^−8 M or with 0.1% DMSO as control for 24 hrs, and then analyzed for viability. […]

INS-1 cells [3] = assay: INS-1 apoptosis, caspase 3/7 activity (Caspase-Glo 3/7); type: cell-based, rat; details: 24 hrs
Description: (§1) Rat insulinoma cells (INS-1) were cultured in RPMI Medium 1640 (PAA) containing 2 mM L-glutamine, 10% FBS, 1 mM Na-pyruvate, 50 μM 2-mercaptoethanol, and 100 U/mL penicillin/streptomycin (Gibco) at 37° C. in a 5% CO2 humidified incubator. Medium was exchanged every second day and cells were passaged once per week. INS-1 cells were treated with the GHRH agonist P-27403 at concentrations from 10^−7 to 10^−9 M for 24 hrs and was analyzed for viability and apoptosis. Viability was assessed using CellTiter 96 AQueous One Solution Cell Proliferation Assay (Promega) according to the manufacturer's instructions. Apoptosis was assayed by determination of caspase 3/7 activity using Caspase-Glo 3/7 Assay (Promega) according to manufacturer's instructions.
INS-1 cells were grown for 72 h before experimentation. Cells were treated with various GHRH agonist peptides at different concentrations or with 0.1% (vol/vol) DMSO as control for 24 h, 48 h and 72 h. Apoptosis was assayed by determination of caspase 3/7 activity using Caspase-Glo 3/7 Assay (Promega) according to the manufacturer's instructions.

GH level [4] = assay: In vivo endocrine activity (GH release), subcutaneous administration; details: rat, s.c.
Description: Subcutaneous Administration. Adult male rats were used and anesthetized with pentobarbital (6 mg/100 g, b.w.), by i.p. injection. […] Blood samples were taken from the jugular vein 5, 15 and/or 30 minutes after the injection. The blood samples were centrifuged, plasma was removed and the GH level was measured by ELISA. The results are summarized in terms of potency in Table 9.

GH level [5] = assay: In vivo endocrine activity (GH release), intravenous administration; details: rat
Description: In vivo tests on endocrine activity of new GHRH agonists (Intravenous administration). For in vivo tests based on intravenous administration, adult male Sprague-Dawley rats were anesthetized with pentobarbital (6 mg/100/g, b.w.), and GHRH agonists were injected 20 minutes after the injection of pentobarbital. Blood samples were taken from the jugular vein (pretreated level), immediately after hGHRH(1-29)NH2 injection (as a control) or after hGHRH analogs injection. Blood samples were taken from the jugular vein 5, 15 and 30 minutes after the injection. The blood samples were centrifuged, plasma was removed and the GH level was measured by ELISA.

INS-1 cells [6] = assay: INS-1 cell viability (CellTiter 96 AQueous One Solution); type: cell-based, rat; details: 10^-7 to 10^-9 M, 24 hrs
Description: as §1
INS-1 cells were grown for 72 hours before experimentation. Cells were treated with different GHRH agonist peptides (MR-356/P-20356, MR-361/P-20361, MR-367/P-20367, MR-403/P-27403, MR-409/P-27409, MR-502/P-25502) at different concentrations (10^−6-10^−10 M) or with 0.1% (vol/vol) DMSO as control for 24 h, 48 h and 72 h. Viability was assessed using CellTiter 96 AQueous One Solution Cell Proliferation Assay (Promega) according to the manufacturer's instructions. Treatment of INS-1 cells with GHRH agonist peptides for 72 h improved cell viability. Cell viability was expressed as percent of cells treated with control DMSO (FIG. 7).

For CCCC[C@H](NC(=O)[C@@H](NC(=O)[C@H](CC(=O)O)NC(=O)[C@H](CCC(N)=O)NC(=O)[C@H](CC(C)C)NC(=O)[C@H](CC(C)C)NC(=O)[C@H](CCCN)NC(=O)[C@H](CCCNC(=N)N)NC(=O)[C@H](C)NC(=O)[C@H](CO)NC(=O)[C@H](CC(C)C)NC(=O)[C@H](CCC(N)=O)NC(=O)[C@H](CC)NC(=O)[C@H](CC(C)C)NC(=O)[C@@H](NC(=O)[C@H](CCCN)NC(=O)[C@H](CCCNC(=N)N)NC(=O)[C@H](Cc1ccc(O)cc1)NC(=O)[C@H](CO)NC(=O)[C@H](CCC(N)=O)NC(=O)[C@@H](NC(=O)[C@H](Cc1ccccc1)NC(=O)[C@@H](NC(=O)[C@H](C)NC(=O)[C@H](CC(=O)O)NC(=O)[C@@H](C)NC(=O)[C@H](Cc1ccc(O)cc1)NC)[C@@H](C)CC)[C@@H](C)O)C(C)C)[C@@H](C)CC)C(=O)N[C@@H](CC(=O)O)C(=O)N[C@@H](CCCNC(=N)N)C(=O)NC [Peptide P-27403, [N—Me-Tyr^1, D-Ala^2, Gln^8, Orn^12, Abu^15, Orn^21, Nle^27, Asp^28]hGHRH(1-29)NH—CH3] (H-[NMeY][dA]DAIFTQSYR[Orn]VL[Abu]QLSAR[Orn]LLQDI[Nle]DR-NHMe), the “Relative affinitiy (Binding potency) vs JI-38” value [1] was 27.19, the “Enhancement in proliferation rate compared to control” value (INS-1 cells [2]; 10^-8 M, 24 hrs) was 16% and the “Cell proliferation compared to control” value (INS-1 cells [2]; different concentrations, 24 h, 48 h and 72 h) was “significantly induced cell proliferation”. The “Islet viability” value (rat islets) was “increase in viability”, the “Islet viability” value (rat islets; listed as MR403) was “increase of viability” and the “Apoptosis, caspase 3/7 activity” value (INS-1 cells [3]; 10^-7 to 10^-9 M) was “overall reduction of apoptosis”. For the same compound, the “Reduction of apoptosis (caspases 3/7 activity)” value (INS-1 cells [3]; 10^-8 M) was 14%, the “Reduction of apoptosis (caspases 3/7 activity)” value (INS-1 cells [3]; 10^-9 M) was 18% and the “Stimulation of growth hormone levels after s.c. administration (comparison in words)” value (GH level [4]) was “stimulated greater growth hormone levels than hGHRH or JI-38”. The “Stimulation of growth hormone levels after i.v. administration (comparison in words)” value (GH level [5]) was “most potent” and the “Viability compared to control” value (INS-1 cells [6]) was “increased viability at all concentrations used”.
